# Where two headings read alike, the source gives them in different places.
# Tested on: β-catenin-TCF-mediated reporter transcription activity in Colo 205 cells
# Assay: Colo 205 reporter assay (TCF/LEF luciferase)
# Format: cell-based
# Conditions: Colo 205 TCF/LEF luciferase reporter, read-out: TCF reporter Colo205 IC50
# Outline: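 Luciferase signal from a TCF/LEF-driven reporter, stably integrated in Colo 205 colon cancer cells, was measured 5 h after compound addition.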
# [1] = Homo sapiens, COLO 205, 5 h, five hours after addition of compound
Structure (SMILES),IC50 [1],other results
"Cc1nc(NCc2cnn(Cc3ccc(OC(F)(F)F)cc3)c2)nc2c1NC(=O)[C@H](C(C)C)N2C [Compound 467, (S)-7-isopropyl-4,8-dimethyl-2-(((1-(4-(trifluoromethoxy)benzyl)-1H-pyrazol-4-yl)methyl)amino)-7,8-dihydropteridin-6(5H)-one]",< 0.3 µM,
"Cc1cc(Cn2cc(CNc3nc(C)c4c(n3)N(C)[C@@H](C)C(=O)N4)cn2)ccn1 [Compound 178, (7S)-4,7,8-trimethyl-2-(((1-((2-methylpyridin-4-yl)methyl)-1H-pyrazol-4-yl)methyl)amino)-7,8-dihydropteridin-6(5H)-one]",1 to 5 µM,
"C[C@H]1C(=O)Nc2cnc(NC3CN(Cc4ccccc4)C3)nc2N1C [Compound 245, (7S)-2-((1-benzylazetidin-3-yl)amino)-7,8-dimethyl-7,8-dihydropteridin-6(5H)-one]",≥ 5 µM,
"CCn1ccnc1Cn1cc(CNc2nc(C)c3c(n2)N(C)[C@@H](C)C(=O)N3)cn1 [Compound 191, (7S)-2-(((1-((1-ethyl-1H-imidazol-2-yl)methyl)-1H-pyrazol-4-yl)methyl)amino)-4,7,8-trimethyl-7,8-dihydropteridin-6(5H)-one]",1 to 5 µM,
"Cc1nc(NCc2cnn(C3CCN(c4ccc(F)cc4)CC3)c2)nc2c1NC(=O)[C@H](C)N2C [Compound 130, (7S)-2-(((1-(1-(4-fluorophenyl)piperidin-4-yl)-1H-pyrazol-4-yl)methyl)amino)-4,7,8-trimethyl-7,8-dihydropteridin-6(5H)-one]",≥ 5 µM,
"Cc1nc(N[C@H]2C[C@H](Oc3cc(F)c(F)c(F)c3)C2)nc2c1NC(=O)[C@H]([C@H](C)OC(C)(C)C)N2C [Compound 745, (S)-7-((S)-1-(tert-butoxy)ethyl)-4,8-dimethyl-2-(((1r,3S)-3-(3,4,5-trifluorophenoxy)cyclobutyl)amino)-7,8-dihydropteridin-6(5H)-one]",,IC50 (five hours after addition of compound): 0.3 to 1 µM
C[C@@H]1C(=O)Nc2cnc(NCc3cnn(Cc4cc(F)c(F)c(F)c4)c3)nc2N1C [Compound I-896],,"IC50 (Homo sapiens, COLO 205, 5 h, R-isomer at C2 (corresponding to C2 S-isomer), 5 h): 0.3 to 1 µM"
"Cc1nc(N[C@H]2C[C@H](Nc3ccc(C(F)(F)F)nn3)C2)nc2c1NC(=O)[C@H](C(C)C)N2C [Compound 555, (S)-7-isopropyl-4,8-dimethyl-2-((trans-3-((6-(trifluoromethyl)pyridazin-3-yl)amino)cyclobutyl)amino)-7,8-dihydropteridin-6(5H)-one]",1 to 5 µM,
"Cc1nc(N[C@H]2C[C@@H](COCc3ccc(F)cc3)C2)nc2c1NC(=O)[C@H](C)N2C [Compound 286, (7S)-2-((cis-3-(((4-fluorobenzyl)oxy)methyl)cyclobutyl)amino)-4,7,8-trimethyl-7,8-dihydropteridin-6(5H)-one]",< 0.3 µM,
"Cc1nc(NCc2cnn(Cc3ccc(C(F)(F)F)nc3)c2)nc2c1N(C)C(=O)[C@H](C)N2C [Compound 177, (7S)-4,5,7,8-tetramethyl-2-(((1-((6-(trifluoromethyl)pyridin-3-yl)methyl)-1H-pyrazol-4-yl)methyl)amino)-7,8-dihydropteridin-6(5H)-one]",< 0.3 µM,
"C[C@H]1C(=O)Nc2cnc(NCc3cnn(Cc4ccc(C(F)(F)F)cc4)c3)nc2N1C [Compound 147, (7S)-7,8-dimethyl-2-(((1-(4-(trifluoromethyl)benzyl)-1H-pyrazol-4-yl)methyl)amino)-7,8-dihydropteridin-6(5H)-one]",< 0.3 µM,
"C[C@H]1C(=O)Nc2cnc(N[C@H]3C[C@@H](Oc4ccc(F)cc4)C3)nc2N1C [Compound 241, (7S)-2-((cis-3-(4-fluorophenoxy)cyclobutyl)amino)-7,8-dimethyl-7,8-dihydropteridin-6(5H)-one]",≥ 5 µM,
"Cc1nc(NCc2cnn(CCCc3ccc(F)cc3)c2)nc2c1NC(=O)[C@H](C)N2C [Compound 104, (7S)-2-(((1-(3-(4-fluorophenyl)propyl)-1H-pyrazol-4-yl)methyl)amino)-4,7,8-trimethyl-7,8-dihydropteridin-6(5H)-one]",< 0.3 µM,
"CO[C@H](C)[C@H]1C(=O)Nc2c(C)nc(N[C@H]3C[C@H](Oc4cc(F)c(F)c(F)c4)C3)nc2N1C [Compound 599, (S)-7-((R)—1-methoxyethyl)-4,8-dimethyl-2-((trans-3-(3,4,5-trifluorophenoxy)cyclobutyl)amino)-7,8-dihydropteridin-6(5H)-one]",< 0.3 µM,
"Cc1nc(NCc2cnn(Cc3ccc(F)cc3O)c2)nc2c1NC(=O)[C@H](C)N2C [Compound 87, (7S)-2-(((1-(4-fluoro-2-hydroxybenzyl)-1H-pyrazol-4-yl)methyl)amino)-4,7,8-trimethyl-7,8-dihydropteridin-6(5H)-one]",< 0.3 µM,
"COc1ccc(Cn2cc(CNc3nc(C)c4c(n3)N(C)[C@@H](C)C(=O)N4)cn2)cc1F [Compound 146, (7S)-2-(((1-(3-fluoro-4-methoxybenzyl)-1H-pyrazol-4-yl)methyl)amino)-4,7,8-trimethyl-7,8-dihydropteridin-6(5H)-one]",< 0.3 µM,
"Cc1nc(N[C@H]2C[C@@H](Cn3nc(C(F)(F)F)cc3N)C2)nc2c1NC(=O)[C@H](C(C)C)N2C [Compound 585, (S)-2-((cis-3-((5-amino-3-(trifluoromethyl)-1H-pyrazol-1-yl)methyl)cyclobutyl)amino)-7-isopropyl-4,8-dimethyl-7,8-dihydropteridin-6(5H)-one]",0.3 to 1 µM,
"Cc1nc(NCc2cnn(Cc3ccc(F)cc3Cl)c2)nc2c1NC(=O)[C@H](C)N2C [Compound 65, (7S)-2-(((1-(2-chloro-4-fluorobenzyl)-1H-pyrazol-4-yl)methyl)amino)-4,7,8-trimethyl-7,8-dihydropteridin-6(5H)-one]",< 0.3 µM,
"Cc1nc(NC2CN(C(=O)c3csc(C(F)(F)F)n3)C2)nc2c1NC(=O)[C@H](C(C)C)N2C [Compound 613, (S)-7-isopropyl-4,8-dimethyl-2-((1-(2-(trifluoromethyl)thiazole-4-carbonyl)azetidin-3-yl)amino)-7,8-dihydropteridin-6(5H)-one]",0.3 to 1 µM,
"Cc1nn(Cc2ccc(C(F)(F)F)nc2)c(C)c1CNc1nc(C)c2c(n1)N(C)[C@@H](C)C(=O)N2 [Compound 212, (7S)-2-(((3,5-Dimethyl-1-((6-(trifluoromethyl)pyridin-3-yl)methyl)-1H-pyrazol-4-yl)methyl)amino)-4,7,8-trimethyl-7,8-dihydropteridin-6(5H)-one]",≥ 5 µM,
"Cc1nc(N[C@H]2CCc3c2cnn3Cc2ccc(C(F)(F)F)nc2)nc2c1NC(=O)[C@H](C(C)C)N2C [Compound 519, (S)-7-isopropyl-4,8-dimethyl-2-(((S)-1-((6-(trifluoromethyl)pyridin-3-yl)methyl)-1,4,5,6-tetrahydrocyclopenta[c]pyrazol-4-yl)amino)-7,8-dihydropteridin-6(5H)-one]",1 to 5 µM,
"Cc1nc(NCc2ccnc(N3CCOCC3)c2)nc2c1NC(=O)[C@H](C)N2C [Compound 62, (S)-4,7,8-trimethyl-2-(((2-morpholinopyridin-4-yl)methyl)amino)-7,8-dihydropteridin-6(5H)-one]",≥ 5 µM,
"Cc1nc(N[C@H]2C[C@@H](COc3ccc(C#N)nc3)C2)nc2c1NC(=O)[C@H](C(C)C)N2C [Compound 572, 5-((cis-3-(((S)-7-isopropyl-4,8-dimethyl-6-oxo-5,6,7,8-tetrahydropteridin-2-yl)amino)cyclobutyl)methoxy)picolinonitrile]",< 0.3 µM,
